Laboratory results published in US20170008888A1 (KYORIN PHARMACEUTICAL CO., LTD., priority 2014, published 2017).
One block for each compound: values may come before it.

Legend:
[1] = system: TLR4 signaling in primary human umbilical vein endothelial cells; test: Cytokine response to TLR4 agonism (LPS) in primary HUVEC (ELISA); format: cell-based; details: for IL-8: 22 hr; for IL-6 response, in words: summary of Table 24
Experimental: (§1) In this example, the following commercially available inhibitors were tested:
(§2) The results were compared with test compound 61.
(§3) Pooled primary human umbilical vein endothelial cells (HUVEC) were obtained from Lonza (Allendale, N.J.) and maintained in either complete EGM-2 defined media (Lonza) or Medium 200 supplemented with Low Serum Growth Supplement (Life Technologies, Grand Island, N.Y.). Cells at low passage (<5) were seeded at 4e5 cells/ml and allowed to adhere overnight at 37° C. in a humidified atmosphere at 5% CO2. Cells were pre-treated with test compounds for 1 h prior to TLR2 or TLR4 stimulation. To test for the effects of TLR2 agonism, the TLR2 agonist peptide Pam3CysK4 (Santa Cruz Biotechnology, Dallas, Tex.) was used at 10 μg/ml. PHC-SKKK (Enzo Life Sciences, Farmingdale, N.Y.) served as the negative control peptide. To test for the effects of TLR4 agonism, LPS from E. coli 0111:B4 (EMD Millipore, Billerica, Mass.) was used at 100 ng/ml. Cells were incubated for 22 hr, after which the supernatant was collected and analyzed for cytokine concentrations by ELISA (Life Technologies). Absorbance at 450 nm was read using the Wallac 1420 Victor^2 multilabel microplate reader (Perkin Elmer, Waltham, Mass.).

[2] = system: TLR2 signaling in primary human umbilical vein endothelial cells; test: Cytokine response to TLR2 agonism (Pam3CysK4) in primary HUVEC (ELISA); format: cell-based; details: for IL-8 response to TLR2 (Pam3CysK4) stimulation, in words: summary of Table 22
Description: It has been reported in the literature that that ERK5 mediates TLR2-dependent inflammatory signaling in several cell types including human umbilical vein endothelial cells (HUVEC). See Wilhelmsen et al., J Biol Chem. 2012; 287:26478-94. Wilhelmsen et al. further reported that MEK1 negatively regulates TLR2 signaling in HUVECs, with pharmacological inhibition of MEK1 augmenting (IL-6, G-CSF, GM-CSF) or not changing (IL-8) pro-inflammatory cytokine release in response to TLR2 stimulation.
as §1, §2, §3

[3] = system: primary asthmatic human bronchial epithelial cells; test: IL-17A- or IL-17F-mediated cytokine response by primary asthmatic human bronchial epithelial cells; format: cell-based; details: Epithelial cell, 0.25 μM, positive control, data not shown, read-out: inhibition of measured cytokines
Experimental: The virally immortalized, normal human bronchial epithelial cell line BEAS-2B was purchased from ATCC (Manassas, Va.). Primary bronchial epithelial cells isolated from a patient diagnosed with asthma were obtained from Lonza (Allendale, N.J.). Both cells were maintained in complete Bronchial Epithelial Cell Growth Medium (BEGM) (Lonza). Cells were seeded at 1e5 cells/ml and incubated at 37° C. in a humidified atmosphere at 5% CO2 overnight to adhere. Cells were pre-treated with test compounds (10 μM down by ⅕ in a 3- or 4-point serial dilution series) for 1 h at 37° C. in a humidified atmosphere at 5% CO2. DMSO at a final concentration of 0.1% served as the non-inhibited control. Budesonide (Selleck Chemicals, Houston, Tex.), a clinically approved glucocorticoid steroid for the treatment of asthma, was tested as a positive control at 0.25 μM. Cells were stimulated with 50 ng/ml of either human recombinant IL-17A or IL-17F (eBioscience, San Diego, Calif.), for 48 h. Supernatant was then collected and analyzed for cytokine concentrations using the Bio-Plex Pro Human Cytokine 17-Plex Panel (Bio-Rad Laboratories, Hercules, Calif.) according to the manufacturer's instructions. Magnetic beads were measured on the Bio-Plex MAGPIX multiplex reader instrument using the accompanying xPONENT 4.2 acquisition software (Bio-Rad Laboratories). Data were analyzed via the Bio-Plex Manager software v6.1 (Bio-Rad Laboratories). For the primary asthmatic bronchial epithelial cells, five (+IL-17F) to thirteen (+IL-17A) cytokines were in range of detection under the conditions used. […] Select cytokines were analyzed for comparison using the BEAS-2B cell line.
BLQ: cytokine levels were below limits of quantitation.

[4] = target: T1, BRD4 bromodomain domain I [BRD4(1)] (Homo sapiens, UniProt O60885); test: BRD4 bromodomain domain 1 inhibition assay (TR-FRET); format: binding
T1 construct: BRD4 bromodomain domain I [BRD4(1)]; purchased Cayman Chemicals
Outline: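 0.5% DMSO, in triplicate, using Cayman BRD4(1) TR-FRET protocol with slight modification. 670/620 nm ratio normalized to 10 μM JQ1, with DMSO control set as 0% inhibition.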

[5] = target: T2, recombinant human ERK5 catalytic domain (Homo sapiens, UniProt Q13164); test: Recombinant human ERK5 radiometric (HotSpot) assay; format: biochemical; details: 10 μM ATP, 20 μM myelin basic protein substrate; read-out: rhERK5 IC50
T2 construct: Recombinant human ERK5 catalytic domain radiometric assays; purchased Reaction Biology, Corp (Malvern, Pa.), which ran the assay as a service
T2 sequence (Q13164 55-347 limits assumed): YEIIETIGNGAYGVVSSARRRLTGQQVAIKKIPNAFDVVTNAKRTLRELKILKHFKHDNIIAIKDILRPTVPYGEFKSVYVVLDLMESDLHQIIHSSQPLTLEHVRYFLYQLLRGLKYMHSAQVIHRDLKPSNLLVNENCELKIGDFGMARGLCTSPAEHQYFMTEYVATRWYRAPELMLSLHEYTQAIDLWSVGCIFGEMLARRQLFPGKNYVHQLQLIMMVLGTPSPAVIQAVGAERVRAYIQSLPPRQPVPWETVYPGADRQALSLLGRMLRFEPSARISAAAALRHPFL
Experimental: In this example, potency of the compounds in recombinant human ERK5 was assayed.
Recombinant human ERK5 catalytic domain radiometric assays were performed by Reaction Biology, Corp (Malvern, Pa.). The HotSpot radiometric assay is based on conventional filter-binding assays (Nature Biotechnology (2011) 29: 1039-1045). Compounds were tested at 20 μM down by ⅓ in a 10 point serial dilution series. Briefly, [γ-33P]-ATP was used as the tracer along with 10 μM cold ATP to label ERK5 in the presence of 20 μM myelin basic protein substrate.

[6] = system: human PBMCs; test: Human PBMC TNF-α response to endotoxin (ELISA); format: cell-based; details: 0.1 μg/ml LPS 16 h, read-out: EC50 for the inhibition of the human PBMC TNF-α response to endotoxin, ave. ± S.D.
Outline: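 PBMCs at 2e6 cells/ml in RPMI 1640 with 10% charcoal-dextran-treated FBS were pre-treated 1 h at 37 °C with compound (4-point 1:5 dilution from 10 μM). Stimulation with 0.1 μg/ml E. coli 0111:B4 LPS for 16 h; TNF-α measured by ELISA (A450) in 25-fold diluted supernatant.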

[7] = system: collagen-induced arthritis mouse model; test: Collagen-induced arthritis (CIA) mouse model: histopathology of tibiofemoral and tarsal/phalangeal joints; format: in vivo, mouse (DBA/1J)
[8] = system: collagen-induced arthritis mouse model; test: Collagen-induced arthritis (CIA) mouse model: in-life disease score, paw thickness; format: in vivo, mouse (DBA/1J); details: for change in group average disease score - mean, Day versus Day 21 (start of treatment): Tofacitinib 15 mg/kg PO BID from D21
[9] = 10 μM inhibitor, +100 ng/ml LPS
[10] = 10 μM inhibitor, No Stimulation
[11] = 5 μM inhibitor, +10 μg/ml PHC-SKKK (negative control peptide), 22 hr
[12] = 5 μM inhibitor, +10 μg/ml Pam3CysK4, 22 hr
[13] = Group 2 (n=10): Tofacitinib 15 mg/kg PO BID D21-D42
[14] = Group 2: Tofacitinib 15 mg/kg PO BID D21-D42

SMILES: O=C(NC[C@H](O)CO)c1ccncc1Nc1ccc(I)cc1F [AS703026]
IL-8 ([1]; 5 μM inhibitor, +100 ng/ml LPS): 1970 ± 126 pg/mL
G-CSF [1, 9]: 90 ± 13 pg/mL
IL-6 [1, 9]: 1368 ± 169 pg/mL
G-CSF [1, 10]: 30 ± 1 pg/mL
IL-6 [1, 10]: 529 ± 20 pg/mL
IL-6 response, in words [1]: Cytokine augmentation was observed
IL-8 [2, 11]: 0 ± 23 pg/mL
IL-8 [2, 12]: 732 ± 36 pg/mL
IL-8 response to TLR2 (Pam3CysK4) stimulation, in words [2]: moderate IL-8 augmentation

SMILES: CCCC1O[C@@H]2C[C@H]3[C@@H]4CCC5=CC(=O)C=C[C@]5(C)[C@H]4[C@@H](O)C[C@]3(C)[C@]2(C(=O)CO)O1 (stereo partly drawn) [Budesonide, reference compound]
inhibition at […] [3]: < 50%

SMILES: CN1C(=O)c2cccc(Cl)c2N(C)c2cc(N[C@H]3CC[C@H](O)CC3)ncc21 [Compound T120]
IC50 [4]: > 5000 nM
IC50 [5]: > 200 nM
EC50 [6]: 2390 ± 2110 nM

SMILES: COc1cccc2c1N(C)c1cc(N[C@H]3CC[C@H](O)CC3)ncc1N(C)C2=O [Compound T122]
IC50 [4]: > 5000 nM
IC50 [5]: 50 to 200 nM
EC50 [6]: 3490 ± 3000 nM

SMILES: C[S+]([O-])c1ccc(-c2nc(-c3ccncc3)c(-c3ccc(F)cc3)[nH]2)cc1 (stereo not drawn) [SB203580]
G-CSF [1, 9]: 318 ± 33 pg/mL
IL-6 [1, 9]: 112 ± 10 pg/mL
IL-8 [1, 9]: 1526 ± 54 pg/mL
G-CSF [1, 10]: 7 ± 9 pg/mL
IL-6 [1, 10]: 18 ± 5 pg/mL
IL-6 response, in words [1]: reduced
IL-8 ([2]; 10 μM inhibitor, +10 μg/ml PHC-SKKK (negative control peptide), 22 hr): 54 ± 12 pg/mL
IL-8 ([2]; 10 μM inhibitor, +10 μg/ml Pam3CysK4, 22 hr): 450 ± 23 pg/mL
IL-8 response to TLR2 (Pam3CysK4) stimulation, in words [2]: reduced the IL-8 response

SMILES: C[C@@H]1CCN(C(=O)CC#N)C[C@@H]1N(C)c1ncnc2[nH]ccc12 [Tofacitinib, reference compound]
histopathology of hind-limb joints (knee, paw/tarsal), in words ([7]; Day 42, H&E): less effective at mitigating cartilage and periosteal erosion at the knee and ulceration and synovial hyperplasia than 46
Animals with normal tarsal joints (% of total n in group) [7, 13]: 40%
Number of animals with normal tarsal joints [7, 13]: 4
Tibiofemoral joint score: cartilage erosion/ulceration [7, 14]: 16.3
Tibiofemoral joint score: inflammation [7, 14]: 16.3
Tibiofemoral joint score: periosteal proliferation/erosion [7, 14]: 7.8
Tibiofemoral joint score: synovial hyperplasia [7, 14]: 5.0
change in group average disease score - mean, Day versus Day 21 (start of treatment) ([8]; Day 21): 0.0
change in group average disease score - mean, Day versus Day 21 (start of treatment) ([8]; Day 24): 0.3
change in group average disease score - mean, Day versus Day 21 (start of treatment) ([8]; Day 26): 0.9
change in group average disease score - mean, Day versus Day 21 (start of treatment) ([8]; Day 28): 1.8
change in group average disease score - mean, Day versus Day 21 (start of treatment) ([8]; Day 31): 2.3
change in group average disease score - mean, Day versus Day 21 (start of treatment) ([8]; Day 33): 2.6
change in group average disease score - mean, Day versus Day 21 (start of treatment) ([8]; Day 35): 2.7
change in group average disease score - mean, Day versus Day 21 (start of treatment) ([8]; Day 37): 2.2
change in group average disease score - mean, Day versus Day 21 (start of treatment) ([8]; Day 39): 2.5
percent reduction in overall disease and total paw scores ([8]; treatment Day 21-42, Tofacitinib 15 mg/kg BID PO, doses in Table 28): about 55%

SMILES: CCOc1cc(N2CCC(O)CC2)ccc1Nc1ncc2c(n1)N(C)c1ccccc1C(=O)N2C [XMD8-92]
G-CSF ([1]; 5 μM inhibitor, +100 ng/ml LPS): 111 ± 6 pg/mL
IL-6 ([1]; 5 μM inhibitor, +100 ng/ml LPS): 170 ± 21 pg/mL
IL-8 ([1]; 5 μM inhibitor, +100 ng/ml LPS): 1249 ± 42 pg/mL
G-CSF ([1]; 5 μM inhibitor, No Stimulation): 0 ± 1 pg/mL
IL-6 ([1]; 5 μM inhibitor, No Stimulation): 20 ± 1 pg/mL
IL-6 response, in words [1]: reduced
IL-8 [2, 11]: 0 ± 25 pg/mL
IL-8 [2, 12]: 199 ± 11 pg/mL
IL-8 response to TLR2 (Pam3CysK4) stimulation, in words [2]: reduced the IL-8 response

Second part, led by results:

IC50 [4]: < 2000 nM
IC50 [5]: 20 to 50 nM
SMILES: CCOc1cc(C(=O)N2CCN(C3CCN(C)CC3)CC2)ccc1Nc1cc2c(cn1)N(C)C(=O)c1c(F)cccc1N2C [Compound T124]
EC50 [6]: 310 ± 220 nM

IC50 [4]: 2000 to 5000 nM
IC50 [5]: 50 to 200 nM
SMILES: CCOc1cc(C(=O)N2CCN(C3CCN(C)CC3)CC2)ccc1Nc1cc2c(cn1)N(C)C(=O)c1cccc(F)c1N2C [Compound T125]
EC50 [6]: 790 ± 200 nM

IC50 [4]: > 5000 nM
IC50 [5]: 50 to 200 nM
SMILES: CCOc1cc(C(=O)N2CCN(C3CCN(C)CC3)CC2)ccc1Nc1cc2c(cn1)N(C)C(=O)c1cccc(Cl)c1N2C [Compound T126]
EC50 [6]: 970 ± 830 nM

IC50 [4]: 2000 to 5000 nM
IC50 [5]: 50 to 200 nM
SMILES: CN1C(=O)c2ccccc2N(C)c2cc(N[C@H]3CC[C@H](NS(N)(=O)=O)CC3)ncc21 [Compound T128]
EC50 [6]: 2510 ± 1470 nM

IC50 [4]: 2000 to 5000 nM
IC50 [5]: 50 to 200 nM
SMILES: CN1C(=O)c2ccccc2N(C)c2cc(N[C@H]3CC[C@H](NS(=O)(=O)C4CC4)CC3)ncc21 [Compound T129]
EC50 [6]: 1790 ± 1440 nM

IC50 [4]: > 5000 nM
IC50 [5]: 50 to 200 nM
SMILES: CN1C(=O)c2ccccc2N(C)c2cc(N[C@H]3CC[C@H](N4CCCS4(=O)=O)CC3)ncc21 [Compound T136]
EC50 [6]: 2030 ± 1910 nM

IC50 [4]: > 5000 nM
IC50 [5]: 50 to 200 nM
SMILES: C[C@H]1C[C@H](Nc2cc3c(cn2)N(C)C(=O)c2ccccc2N3C)CC[C@H]1O [Compound T137]
EC50 [6]: 1110 ± 990 nM
